The values that follow come from the NIST ThermoML archive (doi:10.1021/je5004719).

As a reminder, the speed of sound is the propagation velocity of pressure waves in the medium. For orientation: mass density means mass per unit of volume.

Each structure is given as a SMILES string. Numbers after ± are expanded uncertainties.

For this data set the following is noted: 101.33 kPa, Liquid; for speed of sound: Sing-around technique in a fixed-path interferometer; for mass density: Vibrating tube method.

`Cc1ccccc1C` [1,2-dimethylbenzene]: the speed of sound reads like this: (298.15 K) 1346.2 ± 0.7 m/s; (303.15 K) 1326.2 ± 0.7 m/s; (308.15 K) 1306.1 ± 0.7 m/s. For the same compound, the mass density is, setting by setting: (298.15 K) 875.91 ± 1 kg/m3; (303.15 K) 871.7 ± 1 kg/m3; (308.15 K) 867.48 ± 1 kg/m3.

With `Cc1ccccc1Cl` [2-chlorotoluene], the speed of sound by setting is: (298.15 K) 1298.7 ± 1 m/s; (303.15 K) 1280.7 ± 1 m/s; (308.15 K) 1262.7 ± 1 m/s. For the same compound, the mass density is, setting by setting: (298.15 K) 1077.3 ± 1 kg/m3; (303.15 K) 1072.5 ± 1 kg/m3; (308.15 K) 1067.6 ± 1 kg/m3.

In the case of `c1ccccc1` [benzene], the speed of sound runs as follows: (298.15 K) 1299.4 ± 0.8 m/s; (303.15 K) 1276.1 ± 0.77 m/s; (308.15 K) 1252.9 ± 0.76 m/s. Also, the mass density reads like this: (298.15 K) 873.54 ± 1 kg/m3; (303.15 K) 868.2 ± 1 kg/m3; (308.15 K) 862.84 ± 1 kg/m3.

As for `C1CCOCC1` [tetrahydropyran], the speed of sound reads like this: (298.15 K) 1269.8 ± 0.8 m/s; (303.15 K) 1246.8 ± 0.8 m/s; (308.15 K) 1224.4 ± 0.8 m/s. For the same compound, the mass density reads like this: (298.15 K) 879.13 ± 1 kg/m3; (303.15 K) 873.99 ± 1 kg/m3; (308.15 K) 868.83 ± 1 kg/m3.

With `Cc1ccccc1` [toluene], the speed of sound was 1304.6 ± 0.8 m/s (298.15 K), 1283.2 ± 0.8 m/s (303.15 K) and 1261.8 ± 0.8 m/s (308.15 K). For the same compound, the mass density is recorded as 862.18 ± 1 kg/m3 (298.15 K), 857.51 ± 1 kg/m3 (303.15 K) and 852.82 ± 1 kg/m3 (308.15 K).
